System: SUM149PT spheroids with HUVEC/MSC, viability
Experiment: Anticancer human tumor SUM149PT cell line growth inhibition [GQUAD];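 also: spheroids exposed to drugs for seven days before readout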;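 as to viability, T/C: percent viability relative to DMSO vehicle control taken as 100%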
Conditions: for IC50: curve of first compound; for viability, T/C: stronger effect = lower value
How it was run: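 Tumor cells were grown as complex spheroids with HUVEC endothelial cells and mesenchymal stem cells as stroma. G-quadruplex stabilizers were combined with targeted agents over half-log dilutions from near the clinical Cmax, or from 10 microM.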

[1] = second compound 0.0316 µM, first compound 0.0316 µM
[2] = second compound 0.0316 µM, first compound 0.1 µM
[3] = second compound 0.0316 µM, first compound 0.316 µM
[4] = second compound 0.0316 µM, first compound 1 µM
[5] = second compound 0.0316 µM, first compound 3.16 µM
[6] = second compound 0.0316 µM, first compound 10 µM
[7] = second compound 0.1 µM, first compound 0.0316 µM
[8] = second compound 0.1 µM, first compound 0.1 µM
[9] = second compound 0.1 µM, first compound 0.316 µM
[10] = second compound 0.1 µM, first compound 1 µM
[11] = second compound 0.1 µM, first compound 3.16 µM
[12] = second compound 0.1 µM, first compound 10 µM
[13] = second compound 0.316 µM, first compound 0.0316 µM
[14] = second compound 0.316 µM, first compound 0.1 µM
[15] = second compound 0.316 µM, first compound 0.316 µM
[16] = second compound 0.316 µM, first compound 1 µM
[17] = second compound 0.316 µM, first compound 3.16 µM
[18] = second compound 0.316 µM, first compound 10 µM
[19] = second compound 1 µM, first compound 0.0316 µM
[20] = second compound 1 µM, first compound 0.1 µM
[21] = second compound 1 µM, first compound 0.316 µM
[22] = second compound 1 µM, first compound 1 µM
[23] = second compound 1 µM, first compound 3.16 µM
[24] = second compound 1 µM, first compound 10 µM
[25] = second compound 3.16 µM, first compound 0.0316 µM
[26] = second compound 3.16 µM, first compound 0.1 µM
[27] = second compound 3.16 µM, first compound 0.316 µM
[28] = second compound 3.16 µM, first compound 1 µM
[29] = second compound 3.16 µM, first compound 3.16 µM
[30] = second compound 3.16 µM, first compound 10 µM
[31] = second compound 10 µM, first compound 0.0316 µM
[32] = second compound 10 µM, first compound 0.1 µM
[33] = second compound 10 µM, first compound 0.316 µM
[34] = second compound 10 µM, first compound 1 µM
[35] = second compound 10 µM, first compound 3.16 µM
[36] = second compound 10 µM, first compound 10 µM

`Cc1cccc(N(C)C(=O)C2C(O)CCN2c2nc(C)cc(C(F)(F)F)c2C#N)c1` (stereo not drawn) + Cc1cnc(CNC(=O)c2c(=O)c3ccc(N4CCCN(C)CC4)nc3n3c2sc2ccccc23)cn1 gave an IC50 (second compound 0.0316 µM) of over 10 µM, an IC50 (second compound 0.1 µM) of over 10 µM and an IC50 (second compound 0.316 µM) of over 10 µM. It also gave an IC50 (second compound 1 µM) of under 0.0316 µM, an IC50 (second compound 3.16 µM) of under 0.0316 µM and an IC50 (second compound 10 µM) of under 0.0316 µM. It also gave a viability, T/C [1] of 104%, a viability, T/C [2] of 86.5% and a viability, T/C [3] of 85%. For the same molecule, the viability, T/C [4] was 88.9%, the viability, T/C [5] was 88% and the viability, T/C [6] was 95.4%. It also gave a viability, T/C [7] of 63.1%, a viability, T/C [8] of 61.9% and a viability, T/C [9] of 78.3%. The viability, T/C [10] was 64.9%, the viability, T/C [11] was 75.6% and the viability, T/C [12] was 66.5%. For the same molecule, the viability, T/C [13] was 61%, the viability, T/C [14] was 62.7% and the viability, T/C [15] was 57.4%. The viability, T/C [16] was 58.6%, the viability, T/C [17] was 59.5% and the viability, T/C [18] was 61.3%. The viability, T/C [19] was 45.5%, the viability, T/C [20] was 47.5% and the viability, T/C [21] was 48.6%. For the same molecule, the viability, T/C [22] was 45.4%, the viability, T/C [23] was 49.6% and the viability, T/C [24] was 49.4%. The viability, T/C [25] was 39.2%, the viability, T/C [26] was 41.1% and the viability, T/C [27] was 41.8%. It also gave a viability, T/C [28] of 42.5%, a viability, T/C [29] of 41.2% and a viability, T/C [30] of 46.9%. It also gave a viability, T/C [31] of 11%, a viability, T/C [32] of 11.9% and a viability, T/C [33] of 33.3%. For the same molecule, the viability, T/C [34] was 30.9%, the viability, T/C [35] was 25% and the viability, T/C [36] was 0.29%.
With `O=c1[nH]cc(F)c(=O)[nH]1` + CN(C)c1ccc(Nc2c3ccc(NC(=O)CCN4CCCC4)cc3nc3cc(NC(=O)CCN4CCCC4)ccc23)cc1 the IC50 (second compound 0.0316 µM) was 8.99 µM, the IC50 (second compound 0.1 µM) was over 10 µM and the IC50 (second compound 0.316 µM) was 8.35 µM. For the same molecule, the IC50 (second compound 1 µM) was 8.64 µM, the IC50 (second compound 3.16 µM) was 6.64 µM and the IC50 (second compound 10 µM) was 4.53 µM. For the same molecule, the viability, T/C [1] was 105%, the viability, T/C [2] was 93.2% and the viability, T/C [3] was 99.2%. The viability, T/C [4] was 98.8%, the viability, T/C [5] was 63.5% and the viability, T/C [6] was 48.6%. The viability, T/C [7] was 100%, the viability, T/C [8] was 92% and the viability, T/C [9] was 94.4%. For the same molecule, the viability, T/C [10] was 99.3%, the viability, T/C [11] was 61.5% and the viability, T/C [12] was 57.3%. It also gave a viability, T/C [13] of 86.5%, a viability, T/C [14] of 93.3% and a viability, T/C [15] of 86.5%. It also gave a viability, T/C [16] of 89.5%, a viability, T/C [17] of 70% and a viability, T/C [18] of 46.2%. It also gave a viability, T/C [19] of 83.5%, a viability, T/C [20] of 91.6% and a viability, T/C [21] of 94.8%. The viability, T/C [22] was 99.4%, the viability, T/C [23] was 68.8% and the viability, T/C [24] was 47.2%. For the same molecule, the viability, T/C [25] was 81.5%, the viability, T/C [26] was 80% and the viability, T/C [27] was 82.8%. It also gave a viability, T/C [28] of 92.5%, a viability, T/C [29] of 60% and a viability, T/C [30] of 44.5%. For the same molecule, the viability, T/C [31] was 80.6%, the viability, T/C [32] was 80.9% and the viability, T/C [33] was 91.2%. The viability, T/C [34] was 94%, the viability, T/C [35] was 52.5% and the viability, T/C [36] was 44.3%.
In the case of `CC(C)(O)C1CCC(Nc2ccc3ncc(-c4cccc(C(F)(F)F)c4)n3n2)CC1` (stereo not drawn) + Cc1cnc(CNC(=O)c2c(=O)c3ccc(N4CCCN(C)CC4)nc3n3c2sc2ccccc23)cn1, the IC50 (second compound 0.0316 µM) is reported as 1.09 µM, the IC50 (second compound 0.1 µM) is reported as 0.685 µM and the IC50 (second compound 0.316 µM) is reported as 0.349 µM. For the same molecule, the IC50 (second compound 1 µM) was under 0.0316 µM, the IC50 (second compound 3.16 µM) was under 0.0316 µM and the IC50 (second compound 10 µM) was under 0.0316 µM. It also gave a viability, T/C [1] of 72.8%, a viability, T/C [2] of 69.2% and a viability, T/C [3] of 58.2%. For the same molecule, the viability, T/C [4] was 57%, the viability, T/C [5] was 32.6% and the viability, T/C [6] was 29.5%. The viability, T/C [7] was 57.3%, the viability, T/C [8] was 63% and the viability, T/C [9] was 67%. For the same molecule, the viability, T/C [10] was 43.9%, the viability, T/C [11] was 26.2% and the viability, T/C [12] was 24.3%. For the same molecule, the viability, T/C [13] was 52.9%, the viability, T/C [14] was 50.8% and the viability, T/C [15] was 47.9%. For the same molecule, the viability, T/C [16] was 44.6%, the viability, T/C [17] was 22.5% and the viability, T/C [18] was 25.8%. The viability, T/C [19] was 43.7%, the viability, T/C [20] was 43.6% and the viability, T/C [21] was 37.9%. It also gave a viability, T/C [22] of 37.3%, a viability, T/C [23] of 18.9% and a viability, T/C [24] of 17.4%. The viability, T/C [25] was 32.9%, the viability, T/C [26] was 34.7% and the viability, T/C [27] was 32.5%. The viability, T/C [28] was 32.1%, the viability, T/C [29] was 18.5% and the viability, T/C [30] was 1.21%. It also gave a viability, T/C [31] of 0.27%, a viability, T/C [32] of 2.83% and a viability, T/C [33] of 2.02%. The viability, T/C [34] was 1.99%, the viability, T/C [35] was 2.14% and the viability, T/C [36] was 1.18%.
`CC(C)n1c(=O)n(C)c2cnc3cc(F)c(-c4ccc(OCCCN5CCCCC5)nc4)cc3c21` + Cc1[nH]c2ccc(F)cc2c1-c1nc2c3cccnc3c3ncccc3c2[nH]1 showed an IC50 (second compound 0.0316 µM) of over 10 µM, an IC50 (second compound 0.1 µM) of over 10 µM and an IC50 (second compound 0.316 µM) of over 10 µM. It also gave an IC50 (second compound 1 µM) of over 10 µM, an IC50 (second compound 3.16 µM) of over 10 µM and an IC50 (second compound 10 µM) of over 10 µM. For the same molecule, the viability, T/C [1] was 86.3%, the viability, T/C [2] was 80.9% and the viability, T/C [3] was 104%. For the same molecule, the viability, T/C [4] was 96.4%, the viability, T/C [5] was 98.1% and the viability, T/C [6] was 67.7%. For the same molecule, the viability, T/C [7] was 97.8%, the viability, T/C [8] was 90.8% and the viability, T/C [9] was 88%. It also gave a viability, T/C [10] of 101%, a viability, T/C [11] of 98.5% and a viability, T/C [12] of 73%. It also gave a viability, T/C [13] of 99.3%, a viability, T/C [14] of 91.3% and a viability, T/C [15] of 95%. It also gave a viability, T/C [16] of 103%, a viability, T/C [17] of 93.8% and a viability, T/C [18] of 73.2%. It also gave a viability, T/C [19] of 94.8%, a viability, T/C [20] of 96.4% and a viability, T/C [21] of 95.7%. The viability, T/C [22] was 97.5%, the viability, T/C [23] was 105% and the viability, T/C [24] was 69.4%. The viability, T/C [25] was 89.9%, the viability, T/C [26] was 91.5% and the viability, T/C [27] was 97.5%. The viability, T/C [28] was 92.5%, the viability, T/C [29] was 99.8% and the viability, T/C [30] was 64.3%. For the same molecule, the viability, T/C [31] was 94.5%, the viability, T/C [32] was 77.6% and the viability, T/C [33] was 89%. It also gave a viability, T/C [34] of 92.5%, a viability, T/C [35] of 94.8% and a viability, T/C [36] of 62.5%.
